# Results: paper PMC10150366, “Discovery of an In Vivo Chemical Probe for BCL6 Inhibition by Optimization of Tricyclic Quinolinones” (Journal of Medicinal Chemistry, 2023)
# Where “and” joins values, the source holds several entries; their conditions need not be identical. Equal entries are not always repeated. Where two headings read alike, the source gives them in different places.
# How the values were obtained:
# BCL6 = conditions: OCI-Ly1 cells, cited from earlier work; for DC50: read-out: MSD degrader assay [OCI-Ly1] DC50
# human BCL6 BTB domain = human BCL6 BTB domain (Homo sapiens, UniProt P41182); assay: BCL6 TR-FRET assay; type: binding; conditions: for IC90: read-out: BCL6 TR-FRET IC90 Geometric Mean
# Method: 1. Supplementary experimental: protein production, purification and crystallography 1.1 BCL6 constructs used for assays and crystallography […]
# cleavage site. For the TR-FRET assay, the Trx-6His-HRV3C-BCL6 protein construct was used without cleaving the tag, as a 6His was needed to bind to the anti-6His-Terbium antibody. […]
# For both plasmid constructs described above, transformed BL21-AI E. coli cells were grown in LB media […]
# Expression was carried out at 18 °C for 18 hours. Cells were harvested by centrifugation (5500 g for 30 minutes at 4 °C) and stored at -80 °C.
# Cells were re-suspended in a buffer composed of 20 mM Tris pH 8, 250 mM NaCl, 1 mM MgCl2, 0.5 mM […]
# lysed by sonication followed by centrifugation at 21,000 g for 45 minutes at 4 °C. […]
# ResourceQ and gel filtration using a HiLoad 26/60 Superdex75 column in a buffer containing 20 mM HEPES […]
# The final protein was assessed for purity and molar mass by SDS-PAGE and high-resolution mass spectrometry, respectively.
# For the uncleaved Trx-6His-HRV3C-BCL6 protein construct to be used in TR-FRET, the protein was directly eluted from the HisTrap FF column without HRV-3C treatment, and submitted to Superdex75 gel filtration […]
# Test compounds in DMSO or DMSO alone […]
# concentration in 0.7% v/v DMSO final. […]
# [1] = test system: Caco-2 human colon carcinoma cell line; conditions: cited from earlier work; for CACO-2 (ER): efflux ratio
# [2] = cited from earlier work
# [3] = target: T1, BCL6-SMRT (NCOR2) corepressor protein-protein interaction (Homo sapiens, UniProt P41182); assay: NanoBRET cellular assay (HEK293T); type: cell-based
# T1 construct: DNA encoding full length BCL6 and SMRT; expressed in transfected cells; host or cells: HEK293T
# Method: Test compounds in DMSO or DMSO alone
# concentration in 0.7% v/v DMSO final.
# (also called NCOR2) corepressor protein-protein interaction. DNA encoding full length BCL6 and SMRT
# fusion proteins BCL6-nanoLuc and SMRT-HaloTag, respectively. HEK293T cells were plated […] in T75
# At the time of assay, compounds
# dispensing (Labcyte Inc.). Frozen transfected HEK293T cells were thawed, centrifuged and freezing
# DMSO final concentration.
# After a short centrifugation the
# (1st emission filter) / 450-80 nm (2nd emission filter). The % inhibition at each test concentration was
# sigmoidal four-parameter logistic fit equation. […]
# [4] = Microsomal clearance, mouse liver microsomes; conditions: for CLint H/M/R: one value given, mouse microsomal clearance per text
# [5] = test system: Caco-2 human colon carcinoma cell line; conditions: pH 7.4
# [6] = NMR aqueous solubility assay; conditions: HEPES buffer, aqueous with cosolvent or surfactant or cyclodextrin
# [7] = logD7.4 assay (Chrom log D method); type: physicochemical
# [8] = supplement, read-out: BCL6 NanoBRET IC50 Geometric Mean
# [9] = geometric mean of at least three replicates, read-out: BCL6 TR-FRET IC50
# [10] = HEK-293T, Table S2, several values per compound, read-out: BCL6 NanoBRET IC90 Geometric Mean
# [11] = HEK-293T, Table S2, read-out: BCL6 NanoBRET IC90 individual replicates
# [12] = Table S2, several values per compound, read-out: BCL6 NanoBRET IC90 Geometric Mean
# [13] = geometric mean of at least three replicates, read-out: NanoBRET IC50
# [14] = single replicates, Table S2, read-out: BCL6 NanoBRET IC50 individual replicates
# [15] = Table S1, read-out: BCL6 TR-FRET pIC50 mean (converted)
# [16] = supplement, read-out: BCL6 TR-FRET IC50 Geometric Mean
# [17] = Table S2, read-out: BCL6 NanoBRET IC90 individual replicates
"IC50 [3, 8] [nM]",BCL6 TR-FRET pIC50 mean (human BCL6 BTB domain; Table S1),IC90 (human BCL6 BTB domain; Table S1) [nM],IC50 (human BCL6 BTB domain; [9]) [nM],"IC90 [3, 10] [nM]","IC90 [3, 11] [nM]",BCL6 NanoBRET pIC50 mean ([3]; Table S2),"IC90 [3, 12]","IC50 [3, 13] [nM]","IC50 [3, 14]",Compound,further results
54.7,8.3025,46.6,5,532,385,7.2623,398 nM and 270 nM,55,73.6 nM and 63.9 nM and 34.7 nM,"Cn1c(=O)c2c(c3cc(Nc4nc(N5CC(C#N)C5)ncc4Cl)ccc31)N[C@@H](C1CC1)C(F)(F)CO2 [compound 12, (S)-1-(5-Chloro-4-((2-cyclopropyl-3,3-difluoro-7-methyl-6-oxo-1,2,3,4,6,7-hexahydro-[1,4]oxazepino[2,3-c]quinolin-10-yl)amino)pyrimidin-2-yl)azetidine-3-carbonitrile]",–
–,–,50.2,5.7,–,444,–,–,40,56.7 nM and 28.4 nM and 87.3 nM,"Cn1c(=O)c2c(c3cc(Nc4nc(N5CC(F)C5)ncc4Cl)ccc31)N[C@@H](C1CC1)C(F)(F)CO2 [compound 13, (S)-10-((5-Chloro-2-(3-fluoroazetidin-1-yl)pyrimidin-4-yl)amino)-2-cyclopropyl-3,3-difluoro-7-methyl-1,2,3,4-tetrahydro-[1,4]oxazepino[2,3-c]quinolin-6(7H)-one]","IC50 (human BCL6 BTB domain; [15]): 6.2 nM; IC50 ([3]; Table S2, read-out: BCL6 NanoBRET pIC50 mean (converted)): 52 nM"
68.9,7.873,109,13,–,796,7.1618,–,68,106 nM and 43.5 nM and 71 nM,"Cn1c(=O)c2c(c3cc(Nc4ccnc(Cl)c4Cl)ccc31)N[C@@H](C1CC1)C(F)(F)CO2 [compound 15, (S)-2-Cyclopropyl-10-((2,3-dichloropyridin-4-yl)amino)-3,3-difluoro-7-methyl-1,2,3,4-tetrahydro-[1,4]oxazepino[2,3-c]quinolin-6(7H)-one]","microsomal CLint at 0.5 h, 1 µM ([4]; female, CD1, mouse, liver microsomes, pH 7.4): 24 µL/min/mg; Papp A→B [5]: 9.1 ×10⁻⁶ cm/s; efflux ratio [5]: 2.9; IC50 (human BCL6 BTB domain; [16]): 13.4 nM; solubility kinetic at 20 h [6]: 6 µM; decrease in cellular potency compared to CCT372064 ([3]; NanoBRET): 5 fold; chromatographic logD ([7]; pH 7.4, read-out: Measured logD7.4): 3.2"
129,7.7332,158,18.5,639,639,6.8907,–,–,129 nM,"Cc1nccc(Nc2ccc3c(c2)c2c(c(=O)n3C)OCC(F)(F)[C@H](C3CC3)N2)c1Cl [compound 16, (S)-10-((3-chloro-2-methylpyridin-4-yl)amino)-2-cyclopropyl-3,3-difluoro-7-methyl-1,2,3,4-tetrahydro-[1,4]oxazepino[2,3-c]quinolin-6(7H)-one]",–
108,7.6837,201,21,625,616,6.9685,511 nM and 732 nM,108,99.9 nM and 125 nM and 99.5 nM,"Cn1c(=O)c2c(c3cc(Nc4ccnc(Cl)c4F)ccc31)N[C@@H](C1CC1)C(F)(F)CO2 [compound 18, (S)-10-((2-chloro-3-fluoropyridin-4-yl)amino)-2-cyclopropyl-3,3-difluoro-7-methyl-1,2,3,4-tetrahydro-[1,4]oxazepino[2,3-c]quinolin-6(7H)-one]",IC50 (human BCL6 BTB domain; [16]): 20.7 nM

# Continued, compound first:
Compound,"IC50 [3, 8] [nM]",BCL6 TR-FRET pIC50 mean (human BCL6 BTB domain; Table S1),IC90 (human BCL6 BTB domain; Table S1) [nM],IC50 (human BCL6 BTB domain; [9]) [nM],"IC90 [3, 10] [nM]","IC90 [3, 11] [nM]",BCL6 NanoBRET pIC50 mean ([3]; Table S2),"IC90 [3, 12]","IC50 [3, 13] [nM]","IC50 [3, 14]",further results
C[C@H]1C[C@@H](O)CN(c2ncc(Cl)c(Nc3ccc4c(c3)c3c(c(=O)n4C)OCC(F)(F)[C@H](C4CC4)N3)n2)C1 [CCT373566],–,–,–,–,–,–,–,–,–,–,MSD degrader assay [OCI-Ly1] Dmax (BCL6): 92%; DC50 (BCL6): 0.7 nM; IC50 (human BCL6 BTB domain; read-out: BCL6 TR-FRET IC50 Geometric Mean): 2.2 nM; CACO-2 A-B [1]: 3.2e-06 cm/s; CACO-2 (ER) [1]: 13; Aq. Sol. [2]: 10 µM
C[C@@H]1C[C@H](O)CN(c2ncc(Cl)c(Nc3ccc4c(c3)c3c(c(=O)n4C)OCC(F)(F)[C@H](C4CC4)N3)n2)C1 [CCT373567],25.9,–,–,–,–,–,–,–,–,–,DC50 (BCL6): > 10000 nM; IC50 (human BCL6 BTB domain; BCL6 TR-FRET IC50 Geometric Mean): 2.8 nM; CACO-2 A-B [1]: < 3e-06 cm/s; CACO-2 (ER) [1]: > 16; Aq. Sol. [2]: 8 µM
Cn1c(=O)c2c(c3cc(Nc4ccnc(Cl)c4C#N)ccc31)N[C@@H](C1CC1)C(F)(F)CO2 [compound 14],11.7,–,30.1,4.8,–,124,7.9327,–,–,14.7 nM and 10.4 nM (2×),IC50 (human BCL6 BTB domain; [15]): 3.95 nM
"(2S)-10-((2-(3-acetyl-3,8-diazabicyclo[3.2.1]octan-8-yl)-5-chloropyrimidin-4-yl)amino)-2-cyclopropyl-3,3-difluoro-7-methyl-1,2,3,4-tetrahydro-[1,4]oxazepino[2,3-c]quinolin-6(7H)-one [compound 7]",–,8.728,13.7,1.9,–,–,7.3871,–,41,28.2 nM and 47.9 nM and 51.1 nM,"CLint H/M/R [4]: 50 μLmin^-1mg^-1; IC90 [3, 17]: 284 nM; Measured logD7.4 [7]: 2.5"
"(2S)-10-((2-(8-Acetyl-3,8-diazabicyclo[3.2.1]octan-3-yl)-5-chloropyrimidin-4-yl)amino)-2-cyclopropyl-3,3-difluoro-7-methyl-1,2,3,4-tetrahydro-[1,4]oxazepino[2,3-c]quinolin-6(7H)-one [compound 6]",–,9.0422,4.6,0.9,–,–,7.57,189 nM and 229 nM and 239 nM,26.9,27 nM and 30 nM and 24.1 nM,"CLint H/M/R [4]: 214 μLmin^-1mg^-1; IC90 [3, 17]: 218 nM"
